From ChEMBL document CHEMBL1201862, “PubChem BioAssay data set” (2004)
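A five-concentration, 48-hour dose response in 96-well plates underlies each endpoint, interpolated linearly between surrounding concentrations. Abbreviation: GI50, concentration required for 50% inhibition of growth.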 The source made the active and inactive calls. Rule as the data show it: active = GI50 up to about 1.1 µM and inactive = higher.

Legend:
Assay in all cases: DTP human tumour cell line panel, 48 h
LOX IMVI = tested on: LOX IMVI
ACHN = tested on: ACHN
OVCAR-3 = tested on: OVCAR-3
NCI-H460 = tested on: NCI-H460
RPMI-8226 = tested on: RPMI-8226
HL-60 = tested on: HL-60
EKVX = tested on: EKVX
OVCAR-5 = tested on: OVCAR-5
HCC 2998 = tested on: HCC 2998
SR = tested on: SR
SF-268 = tested on: SF-268
HCT-116 = tested on: HCT-116
K562 = tested on: K562
SNB-75 = tested on: SNB-75
CCRF-CEM = tested on: CCRF-CEM
SNB-19 = tested on: SNB-19
TK-10 = tested on: TK-10
Hs-578T = tested on: Hs-578T
A498 = tested on: A498

| Structure (SMILES) | GI50 (LOX IMVI) | GI50 (ACHN) | GI50 (OVCAR-3) | GI50 (NCI-H460) | GI50 (RPMI-8226) | GI50 (HL-60) | GI50 (EKVX) | GI50 (OVCAR-5) | GI50 (HCC 2998) | GI50 (SR) | GI50 (SF-268) | GI50 (HCT-116) | GI50 (K562) | GI50 (SNB-75) | GI50 (CCRF-CEM) | GI50 (SNB-19) | GI50 (TK-10) | GI50 (Hs-578T) | GI50 (A498) |
| --- | --- | --- | --- | --- | --- | --- | --- | --- | --- | --- | --- | --- | --- | --- | --- | --- | --- | --- | --- |
| O=C1/C(=C/c2cccc(Cl)c2)CCCc2ccccc21 | 17.8 µM (inactive) | 16.1 µM (inactive) | 23.7 µM (inactive) | 15.7 µM (inactive) | 8.26 µM (inactive) | 11.9 µM (inactive) | 16.7 µM (inactive) | 16.5 µM (inactive) | 17.2 µM (inactive) | 11.6 µM (inactive) | 16.8 µM (inactive) | 12.9 µM (inactive) | 14.3 µM (inactive) | 15.6 µM (inactive) | 10.2 µM (inactive) | 14.9 µM (inactive) | 18 µM (inactive) | 15.5 µM (inactive) | – |
| Cc1cc(C)c(S(=O)(=O)N(CCCN)OCCCON(CCCN)S(=O)(=O)c2c(C)cc(C)cc2C)c(C)c1 | 1.87 µM (inactive) | 15.3 µM (inactive) | 2.03 µM (inactive) | 1.67 µM (inactive) | 2.38 µM (inactive) | 1.91 µM (inactive) | 5.92 µM (inactive) | 2.2 µM (inactive) | – | 2.07 µM (inactive) | 1.42 µM (inactive) | 1.75 µM (inactive) | 2.69 µM (inactive) | 1.86 µM (inactive) | 2.3 µM (inactive) | 1.75 µM (inactive) | 4.5 µM (inactive) | 1.49 µM (inactive) | 3.38 µM (inactive) |
| CCC1(C)NC(c2cnccn2)=NN1c1ccc(Cl)cc1 (configuration not stated) | 35.9 µM (inactive) | > 100 µM (inactive) | 39.8 µM (inactive) | 81.7 µM (inactive) | 30 µM (inactive) | 48.8 µM (inactive) | > 100 µM (inactive) | > 100 µM (inactive) | – | 22.1 µM (inactive) | > 100 µM (inactive) | 66.8 µM (inactive) | 39.3 µM (inactive) | 19.3 µM (inactive) | 18.7 µM (inactive) | > 100 µM (inactive) | 70.3 µM (inactive) | > 100 µM (inactive) | > 100 µM (inactive) |
| Cc1ccc2cc3c(ccc4ccccc43)c3c2c1CC3 [3-METHYLCHOLANTHRENE] | > 100 µM (inactive) | > 100 µM (inactive) | > 100 µM (inactive) | > 100 µM (inactive) | > 100 µM (inactive) | > 100 µM (inactive) | 75.5 µM (inactive) | – | > 100 µM (inactive) | > 100 µM (inactive) | > 100 µM (inactive) | > 100 µM (inactive) | > 100 µM (inactive) | > 100 µM (inactive) | > 100 µM (inactive) | > 100 µM (inactive) | > 100 µM (inactive) | 83.9 µM (inactive) | – |
| O=c1c(Br)c(-c2ccccc2)[s+]([O-])c2ccccc12 (configuration not stated) | 11.8 µM (inactive) | 2.52 µM (inactive) | 10.4 µM (inactive) | 17.9 µM (inactive) | 1.61 µM (inactive) | 2.11 µM (inactive) | 16.4 µM (inactive) | 21.5 µM (inactive) | 14.6 µM (inactive) | 2.06 µM (inactive) | 16.4 µM (inactive) | 5.9 µM (inactive) | 2.74 µM (inactive) | 16.2 µM (inactive) | 0.861 µM (active) | 18.2 µM (inactive) | 18.2 µM (inactive) | 25.1 µM (inactive) | – |
| C1CN2CCNCCN(CCN1)CC2 | > 100 µM (inactive) | > 100 µM (inactive) | > 100 µM (inactive) | > 100 µM (inactive) | > 100 µM (inactive) | 20.9 µM (inactive) | > 100 µM (inactive) | > 100 µM (inactive) | – | > 100 µM (inactive) | > 100 µM (inactive) | > 100 µM (inactive) | > 100 µM (inactive) | > 100 µM (inactive) | 3.9 µM (inactive) | > 100 µM (inactive) | > 100 µM (inactive) | > 100 µM (inactive) | > 100 µM (inactive) |
